Reference: patent US8148391B2 (Cephalon, Inc., priority 2006, dated 2012)
Where two headings read alike, the source gives them in different places.

Assays:
[1] = molecular target: T1, baculovirus-expressed ALK (Homo sapiens, UniProt Q9UM73); test: ALK Kinase Assay (ELISA-type, time-resolved fluorescence); type: biochemical
T1 construct: host or cells: baculovirus expression system
Outline: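 Plates coated with phospholipase C-γ substrate (10 μg/mL in TBS); reaction started with 30 ng/ml ALK and run 15 min at 37° C. Phosphorylated substrate detected with Eu-N1-labeled PT66 antibody. IC50 from sigmoidal variable-slope fit of percent inhibition vs log concentration.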

[2] = molecular target: T2, c-Met (cytoplasmic domain) (Homo sapiens, UniProt P08581); test: c-Met Kinase Assay (same methods as for ALK, with modifications); type: biochemical
T2 construct: 10 ng/mL c-Met (cytoplasmic domain, Invitrogen Corporation #PV3143); purchased Invitrogen Corporation PV3143
Outline: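 Europium-labeled PT66 antibody (Eu-N1) detects substrate phosphorylation on wells coated with phospholipase C-γ at 10 μg/mL. The kinase, the cytoplasmic domain of c-Met at 10 ng/mL, starts the reaction, which proceeds 15 minutes at 37° C.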

[3] = ALK kinase inhibition, 1 μM ATP (Km level), read-out: ALK Activity
[4] = c-Met kinase inhibition, 1 μM ATP (Km level), read-out: cMet Activity
[5] = ALK kinase inhibition, 1 μM ATP, read-out: ALK Activity
[6] = c-Met kinase inhibition, 1 μM ATP, read-out: cMet Activity
[7] = 1 μM ATP (Km level), 30 ng/ml ALK, 37° C., 15 minutes, read-out: ALK Activity (ALK kinase inhibition, IC50 class)
[8] = 1 μM ATP (Km level), 10 ng/mL c-Met, read-out: cMet Activity (c-Met kinase inhibition, IC50 class)

T2 sequence (P08581 956-1390 limits assumed): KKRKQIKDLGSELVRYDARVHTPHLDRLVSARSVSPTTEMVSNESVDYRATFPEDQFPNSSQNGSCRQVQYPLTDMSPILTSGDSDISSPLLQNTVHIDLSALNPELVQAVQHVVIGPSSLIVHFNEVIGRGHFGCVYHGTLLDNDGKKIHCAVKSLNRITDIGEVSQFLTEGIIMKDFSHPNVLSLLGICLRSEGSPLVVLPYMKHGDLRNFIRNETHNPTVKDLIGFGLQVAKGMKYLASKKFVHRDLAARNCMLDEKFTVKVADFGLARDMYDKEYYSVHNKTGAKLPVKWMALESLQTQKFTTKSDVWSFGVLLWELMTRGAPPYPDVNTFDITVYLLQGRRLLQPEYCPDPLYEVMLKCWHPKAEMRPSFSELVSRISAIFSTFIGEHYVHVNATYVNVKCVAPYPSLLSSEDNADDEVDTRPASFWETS
T1 sequence (Q9UM73 19-1620): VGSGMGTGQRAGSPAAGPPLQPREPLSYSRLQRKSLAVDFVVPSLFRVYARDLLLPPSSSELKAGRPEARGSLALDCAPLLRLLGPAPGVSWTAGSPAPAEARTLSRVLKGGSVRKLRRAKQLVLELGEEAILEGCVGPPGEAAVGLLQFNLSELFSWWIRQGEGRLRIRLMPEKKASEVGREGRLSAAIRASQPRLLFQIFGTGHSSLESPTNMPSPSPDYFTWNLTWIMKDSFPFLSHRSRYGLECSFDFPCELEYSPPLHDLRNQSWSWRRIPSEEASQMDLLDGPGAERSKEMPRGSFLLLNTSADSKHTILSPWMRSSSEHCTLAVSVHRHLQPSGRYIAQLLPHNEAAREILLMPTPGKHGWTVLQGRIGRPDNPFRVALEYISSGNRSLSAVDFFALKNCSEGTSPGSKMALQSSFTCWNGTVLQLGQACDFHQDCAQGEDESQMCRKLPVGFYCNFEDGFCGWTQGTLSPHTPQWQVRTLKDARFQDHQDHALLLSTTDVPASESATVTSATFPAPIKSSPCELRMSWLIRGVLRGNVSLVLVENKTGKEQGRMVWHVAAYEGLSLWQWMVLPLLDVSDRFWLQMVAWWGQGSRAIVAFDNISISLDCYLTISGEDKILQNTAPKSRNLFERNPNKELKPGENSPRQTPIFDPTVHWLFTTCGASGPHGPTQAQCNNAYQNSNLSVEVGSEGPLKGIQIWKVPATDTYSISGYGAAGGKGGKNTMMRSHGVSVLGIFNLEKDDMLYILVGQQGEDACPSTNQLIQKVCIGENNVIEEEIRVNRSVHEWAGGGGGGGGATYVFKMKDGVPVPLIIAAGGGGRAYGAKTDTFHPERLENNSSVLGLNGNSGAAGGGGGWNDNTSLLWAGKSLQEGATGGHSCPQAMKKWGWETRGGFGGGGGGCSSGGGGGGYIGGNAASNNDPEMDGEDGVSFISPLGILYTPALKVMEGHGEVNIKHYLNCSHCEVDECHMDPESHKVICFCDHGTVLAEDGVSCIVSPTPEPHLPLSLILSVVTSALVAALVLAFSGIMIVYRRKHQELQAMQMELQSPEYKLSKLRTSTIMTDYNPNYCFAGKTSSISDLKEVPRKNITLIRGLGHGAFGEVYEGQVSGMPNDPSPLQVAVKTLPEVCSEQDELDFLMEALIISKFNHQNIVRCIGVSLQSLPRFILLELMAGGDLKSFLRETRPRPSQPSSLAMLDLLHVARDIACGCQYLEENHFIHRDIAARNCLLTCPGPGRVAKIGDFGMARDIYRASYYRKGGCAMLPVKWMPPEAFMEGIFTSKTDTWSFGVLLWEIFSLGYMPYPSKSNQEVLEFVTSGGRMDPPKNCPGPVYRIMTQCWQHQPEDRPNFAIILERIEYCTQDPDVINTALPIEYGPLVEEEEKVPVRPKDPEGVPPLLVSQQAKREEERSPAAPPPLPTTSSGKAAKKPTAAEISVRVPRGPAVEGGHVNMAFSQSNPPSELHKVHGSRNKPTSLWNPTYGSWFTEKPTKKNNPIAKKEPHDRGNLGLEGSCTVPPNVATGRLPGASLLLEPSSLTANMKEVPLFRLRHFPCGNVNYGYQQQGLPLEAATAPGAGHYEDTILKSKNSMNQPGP

SMILES: COc1c(Nc2ncc(Cl)c(NC3C4C=CC(C4)C3C(N)=O)n2)ccc2c1CCCC(=O)N2C (stereo not drawn) [Example 115, (2-exo, 3-exo)-3-[5-Chloro-2-(6-methoxy-1-methyl-2-oxo-2,3,4,5-tetrahydro-1H-benzo[b]azepin-7-ylamino)-pyrimidin-4-ylamino]-bicyclo[2.2.1]hept-5-ene-2-carboxylic acid amide]
- IC50 [1, 3]: < 100 nM
- IC50 [2, 4]: > 10000 nM

SMILES: CCN1CC(=O)Nc2cc(Nc3ncc(Cl)c(N[C@H]4[C@@H](C(N)=O)[C@@H]5C=C[C@H]4C5)n3)c(OC)cc2C1 [Example 1663, (1S,2S,3R,4R)-3-[5-Chloro-2-(4-ethyl-7-methoxy-2-oxo-2,3,4,5-tetrahydro-1H-benzo[e][1,4]diazepin-8-ylamino)-pyrimidin-4-ylamino]-bicyclo-[2.2.1]hept-5-ene-2-carboxylic acid amide]
- IC50 [1, 5]: < 100 nM
- IC50 [2, 6]: > 10000 nM

SMILES: C#CCN(C)C(=O)c1ccccc1Nc1nc(Nc2ccc3c(c2)CCN(CCOC)CC3)ncc1Cl [Example 1389, {5-Chloro-2-[3-(2-methoxy-ethyl)-2,3,4,5-tetrahydro-1H-benzo[d]azepin-7-ylamino]-pyrimidin-4-ylamino}-N-methyl-N-prop-2-ynyl-benzamide]
- IC50 [1, 7]: < 100 nM
- IC50 [2, 8]: 100 to 1000 nM

SMILES: COc1cc2c(cc1Nc1ncc(Cl)c(Nc3ccccc3S(=O)(=O)N3CCC(O)C3)n1)CCC(NCCO)CC2 (stereo not drawn) [Example 1088, 1-(2-{5-Chloro-2-[7-(2-hydroxy-ethylamino)-3-methoxy-6,7,8,9-tetrahydro-5H-benzocyclohepten-2-ylamino]-pyrimidin-4-ylamino}-benzenesulfonyl)-pyrrolidin-3-ol]
- IC50 [1, 7]: < 100 nM
- IC50 [2, 8]: 1000 to 10000 nM

SMILES: COCCN1CCc2ccc(Nc3ncc(Cl)c(Nc4ccccc4S(=O)(=O)N(C)C)n3)cc2CC1 [Example 1686, 2-{5-Chloro-2-[3-(2-methoxy-ethyl)-2,3,4,5-tetrahydro-1H-benzo[d]azepin-7-ylamino]-pyrimidin-4-ylamino}-N,N-dimethyl-benzenesulfonamide]
- IC50 [1, 5]: < 100 nM
- IC50 [2, 6]: 100 to 1000 nM

SMILES: CCN1CCc2cc(Nc3ncc(Cl)c(NC4C5C=CC(C5)C4C(N)=O)n3)c(OC)cc2CC1=O (stereo not drawn) [Example 252, (2-exo,3-exo)-3-[5-Chloro-2-(3-ethyl-8-methoxy-2-oxo-2,3,4,5-tetrahydro-1H-benzo[d]azepin-7-ylamino)-pyrimidin-4-ylamino]-bicyclo[2.2.1]hept-5-ene-2-carboxylic acid amide]
- IC50 [1, 3]: < 100 nM
- IC50 [2, 4]: > 10000 nM

SMILES: CC(C)N1CCNC(=O)c2ccc(Nc3ncc(Cl)c(N[C@@H]4CCCC[C@H]4NS(C)(=O)=O)n3)cc21 [Example 499, N-{(1R,2R)-2-[5-Chloro-2-(1-isopropyl-5-oxo-2,3,4,5-tetrahydro-1H-benzo[e][1,4]diazepin-8-ylamino)-pyrimidin-4-ylamino]-cyclohexyl}-methanesulfonamide]
- IC50 ([1]; 1 μM ATP (Km level), read-out: ALK Activity (ALK Kinase Inhibition, IC50)): 100 to 1000 nM
- IC50 ([2]; 1 μM ATP (Km level), read-out: cMet Activity (c-Met Kinase Inhibition, IC50)): 100 to 1000 nM

SMILES: COc1cc2c(cc1Nc1ncc(Cl)c(N[C@H]3[C@@H](C(N)=O)[C@@H]4C=C[C@H]3C4)n1)C(C)(C)CCC(=O)N2C [Example 1313, (1S,2S,3R,4R)-3-[5-Chloro-2-(8-methoxy-1,5,5-trimethyl-2-oxo-2,3,4,5-tetrahydro-1H-benzo[b]azepin-7-ylamino)-pyrimidin-4-ylamino]-bicyclo[2.2.1]hept-5-ene-2-carboxylic acid amide]
- IC50 [1, 7]: < 100 nM
- IC50 [2, 8]: > 10000 nM

SMILES: COc1cc2c(cc1Nc1ncc(Cl)c(Nc3ccccc3S(=O)(=O)N(C)C)n1)CCN(CC(=O)N1CCCC1)CC2 [Example 1157, 2-{5-Chloro-2-[8-methoxy-3-(2-oxo-2-pyrrolidin-1-yl-ethyl)-2,3,4,5-tetrahydro-1H-benzo[d]azepin-7-ylamino]-pyrimidin-4-ylamino}-N,N-dimethyl-benzenesulfonamide]
- IC50 [1, 7]: < 100 nM
- IC50 [2, 8]: 1000 to 10000 nM
